In data set [1] the target is T1, MAP kinase-activated protein kinase 2 (Homo sapiens, UniProt P49137). The data set is described as follows: Inhibition of MK2 using 5TAMRA-KKLNRTLSVA-COOH as substrate incubated for 30 mins prior to substrate addition measured after 30 mins by immobilized metal ion affinity-based fluorescence polarization assay in presence of 100 uM ATP.
Target sequence in this assay (P49137 whole entry): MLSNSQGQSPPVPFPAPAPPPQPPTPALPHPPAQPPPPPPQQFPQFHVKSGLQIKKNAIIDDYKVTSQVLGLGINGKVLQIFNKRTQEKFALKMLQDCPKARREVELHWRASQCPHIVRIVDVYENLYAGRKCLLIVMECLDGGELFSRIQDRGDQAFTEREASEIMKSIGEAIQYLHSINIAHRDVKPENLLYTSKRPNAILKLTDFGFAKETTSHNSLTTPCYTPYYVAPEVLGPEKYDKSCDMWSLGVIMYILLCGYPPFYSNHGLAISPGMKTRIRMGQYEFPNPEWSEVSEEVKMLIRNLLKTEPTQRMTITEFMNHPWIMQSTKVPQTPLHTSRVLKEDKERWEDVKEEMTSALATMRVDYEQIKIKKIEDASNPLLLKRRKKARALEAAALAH
For data set [2], the target named is T1, MAP kinase-activated protein kinase 2. As to the kind of experiment: Inhibition of MK2 in human THP1 cells assessed as inhibition of LPS-induced HSP27 Ser78 phosphorylation incubated for 60 mins prior to LPS-induction measured after 60 mins. It counts as cell-based, THP-1.
Target sequence in this assay (P49137 whole entry): as above
For data set [3] the target is unchanged. As to the kind of experiment: Non-competitive inhibition of MK2 using 5TAMRA-KKLNRTLSVA-COOH as substrate by immobilized metal ion affinity-based fluorescence polarization assay in presence of 1 to 100 uM ATP. (In general: Polarisation of emitted light reports the rotation of a fluorescent probe.)
Target sequence in this assay (P49137 whole entry, looked up): as the sequence (P49137 whole entry) above
Data set [4] can be described thus: Solubility of the compound in 2% DMSO at pH 7.4. It counts as physicochemical.
A short description of data set [5]: Clearance in rat hepatocyte assessed per million cells. It counts as ADME, cell-based. As to conditions: hepatocytes, read-out: CLH.
The nature of data set [6]: Plasma protein binding in human. It counts as ADME, cell-free. The following applies: read-out: PPB (converted).
The next data set relates to Caco-2. The data set is described as follows: Permeability across human Caco2 cells. It counts as ADME, cell-based. For orientation: Passage across Caco-2 layers is used to estimate intestinal permeability.
Data set [7] can be described thus: Plasma protein binding in rat. It counts as ADME, cell-free. As to conditions: read-out: PPB (converted).
Data set [8] can be described thus: Solubility of the compound in 10 mM sodium phosphate buffer at pH 7.4. It counts as physicochemical.

In brackets after ≈: the same amount, converted by molar mass. Activity calls are given as the source filed them. The calls are words filed in the database; no cut-off is given here.

One may read the IC50 as the concentration at which inhibition is half-maximal. As a reminder, the EC50 is the concentration needed to bring the measured effect to its halfway point. Take `Fc1ccc(-c2ccc(C3=NOC(c4ccccc4-c4cncnc4)N3c3ccc(N4CCNCC4)cc3)o2)cc1` (stereo not drawn): the IC50 in data set [1] came out at 50 nM. For the same molecule, the EC50 in data set [2] is 760 nM.

For `Clc1ccc(-c2ccc(C3=NOCCCN3c3ccc(N4CCNCC4)cc3)o2)cc1`, in data set [1], the IC50 is 1400 nM.

With `CNC(=O)c1ccc(-c2ccc(C3=NOC(c4ccccc4-c4cncnc4)N3c3ccc(N4CCNCC4)cc3)o2)cc1` (stereo not drawn), the IC50 in data set [1] is > 10000 nM.

`Clc1ccc(-c2ccc(-c3nocc3-c3ccc(N4CCNCC4)cc3)o2)cc1`: the IC50 in data set [1] was 3400 nM.

With `Clc1ccc(-c2ccc(C3=NOC(c4ccncn4)N3c3ccc(N4CCNCC4)cc3)o2)cc1` (stereo not drawn), in data set [1], the concentration for half-maximal inhibition (IC50) stood at 60 nM.

On to `Fc1ccc(C2ON=C(c3ccc(-c4ccc(Cl)cc4)o3)N2c2ccc(N3CCNCC3)cc2)cc1` (stereo not drawn), for which the IC50 in [1] stood at 160 nM.

Regarding `N#Cc1ccc(-c2ccc(C3=NOC(c4ccccc4-c4cncnc4)N3c3ccc(N4CCNCC4)cc3)o2)cc1` (stereo in doubt; 38) [listing 1 of 2 here], in data set [3], the inhibition entry was “Active”.

For `Clc1cccc(-c2ccc(C3=NOC(c4ccccc4-c4cncnc4)N3c3ccc(N4CCNCC4)cc3)o2)c1` (stereo not drawn), the IC50 in data set [1] is 1300 nM.

On to `Fc1cc(-c2ccc(C3=NOC(c4ccccc4-c4cncnc4)N3c3ccc(N4CCNCC4)cc3)o2)ccc1Cl` (stereo not drawn), for which the IC50 in [1] worked out at 220 nM.

Turning to `Clc1ccc(-c2ccc(C3=NOC(c4ccncc4)N3Cc3ccc(N4CCNCC4)cc3)o2)cc1` (stereo not drawn), the IC50 in data set [1] was > 10000 nM.

Consider `c1ccc(C2ON=C(c3ccc(-c4ccncc4)o3)N2c2ccc(N3CCNCC3)cc2)c(-c2cncnc2)c1` (stereo not drawn), for which, in [1], the IC50 was 790 nM.

On to `Clc1ccc(-c2ccc(C3=NOC(c4cccnc4)N3c3ccc(N4CCNCC4)cc3)o2)cc1` (stereo not drawn), for which, in [1], the IC50 was 50 nM.

Turning to `Clc1ccc(-c2ccc(C3=NOC(c4ccccc4-c4cncnc4)N3c3ccc(N4CCNCC4)cc3)o2)cc1Cl` (stereo not drawn), in data set [1], the IC50 was 970 nM.

Take `Fc1ccc(C2ON=C(c3ccc(-c4ccc(Cl)cc4)o3)N2c2ccc(N3CCNCC3)cc2)nc1` (stereo not drawn): the IC50 in data set [1] turned out to be 60 nM. For the same molecule, the EC50 in data set [2] was 3700 nM.

On to `Clc1ccc(-c2ccc(C3=NOC(c4ccncc4)N3c3ccc(N4CCNCC4)cc3)o2)cc1` (stereo not drawn), for which, in data set [1], the IC50 was 30 nM. The EC50 in data set [2] came out at 2700 nM.

Turning to `COc1ccc(-c2ccc(C3=NOC(c4ccccc4-c4cncnc4)N3c3ccc(N4CCNCC4)cc3)o2)cc1` (stereo not drawn), the half-maximal inhibitory concentration (IC50) in data set [1] turned out to be 310 nM.

For `Clc1ccc(-c2ccc(C3ON=C(c4ccccc4)N3c3ccc(N4CCNCC4)cc3)o2)cc1` (stereo not drawn), in [1], the IC50 was 3700 nM.

What is called solubility is how much of the substance goes into solution per volume. As to `N#Cc1ccc(-c2ccc(C3=NOC(c4ccccc4-c4cncnc4)N3c3ccc(N4CCNCC4)cc3)o2)cc1` (stereo in doubt; 38) [listing 2 of 2 here], the solubility in [4] and in [8] was 20 µM (≈ 11.1 µg/mL) throughout. Further, the hepatocyte CLint in [5] amounted to 35 µL/min/1e6 cells. Moreover, the fraction unbound in [6] was 0.035; in data set [7] it was 0.031. For the same molecule, the permeability entry with Caco-2 is given as “permeable”. In addition, in data set [1], the IC50 was 6 nM. Besides, the EC50 in data set [2] was determined as 170 nM.

`Clc1ccc(-c2ccc(C3=NOC(c4cnc[nH]4)N3c3ccc(N4CCNCC4)cc3)o2)cc1` (stereo not drawn): the IC50 in data set [1] was 70 nM. In data set [2], the EC50 is 2400 nM.

`Clc1ccc(-c2ccc(C3=NOC(c4ccncc4)N3c3ccc(C4CCNCC4)cc3)o2)cc1` (stereo not drawn): the IC50 in data set [1] was found to be 190 nM.

Turning to `Clc1ccc(-c2ccc(C3=NOC(c4ccccn4)N3c3ccc(N4CCNCC4)cc3)o2)cc1` (stereo not drawn), the IC50 in [1] is 30 nM. Besides, the EC50 in data set [2] is 3000 nM.

Turning to `Fc1cc(F)cc(C2ON=C(c3ccc(-c4ccc(Cl)cc4)o3)N2c2ccc(N3CCNCC3)cc2)c1` (stereo not drawn), the IC50 in [1] was determined as 190 nM.

As for `N#Cc1cccc(-c2ccc(C3=NOC(c4ccccc4-c4cncnc4)N3c3ccc(N4CCNCC4)cc3)o2)c1` (stereo not drawn), in data set [1], the IC50 was 5300 nM.

For the molecule `FC1(F)CCN(c2ccc(N3C(c4ccc(-c5ccc(Cl)cc5)o4)=NOC3c3ccncc3)cc2)CC1` (stereo not drawn), the IC50 in [1] is > 10000 nM.

On to `Fc1ccc(C2ON=C(c3ccc(-c4ccc(Cl)cc4)o3)N2c2ccc(N3CCNCC3)cc2)c(F)c1` (stereo not drawn), for which the IC50 in [1] came to 100 nM.

`N#Cc1ccc(-c2ccc(C3=NOC(c4ccccc4-c4cncnc4)N3c3ccc(N4CCNCC4)cc3)o2)cc1` (stereo in doubt; 33): in data set [1], the 50% inhibitory concentration (IC50) was 8 nM. Besides, the EC50 in [2] stood at 1200 nM.

As for `N#Cc1ccc(-c2ccc(C3=NOC(c4ccccc4-c4cncnc4)N3c3ccc(N4CCNCC4)cc3)o2)cc1` (single isomer, unassigned; enantiomer 2), in [1], the IC50 was found to be 340 nM.

In the case of `Clc1ccc(-c2ccc(-c3cc(-c4ccc(N5CCNCC5)cc4)on3)o2)cc1`, the IC50 in data set [1] is > 10000 nM.

Regarding `O=c1onc(-c2ccc(-c3ccc(Cl)cc3)o2)n1-c1ccc(N2CCNCC2)cc1`, in data set [1], the IC50 was found to be 6200 nM.

In the case of `N#Cc1ccc(-c2ccc(C3=NOCCN3c3ccc(N4CCNCC4)cc3)o2)cc1`, in data set [1], the IC50 came out at 110 nM.

(Values after ChEMBL document CHEMBL2034849, “Discovery of a Potent Dihydrooxadiazole Series of Non-ATP-Competitive MK2 (MAPKAPK2) Inhibitors” (ACS Med Chem Lett, 2012).)
